From patent publication US9296774B2, “Halogenated dideoxy sugar derivates, preparation method and application thereof” (Suzhou Harmony Biotechnology Co., Ltd., priority 2009, dated 2016) come the findings set out here.

Entries after “also recorded” stand apart in the source; their conditions may differ.

Data set [1] concerns mouse. In words: Acute toxicity (LD50), mouse ig.
For data set [2], the system named is mouse. In words: Acute toxicity (LD50), mouse ip injection. The note with it: mouse ip after injection.
Data set [3] deals with anaplastic thyroid carcinoma TA-K cells. In words: Mouse transplant tumor, human anaplastic thyroid carcinoma TA-K.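 As to all read-outs here: Tumor-bearing mice compared against a saline-treated control group.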 The note with it: for inhibitive effect on mouse transplant tumor (in words): anaplastic thyroid carcinoma TA-K, 125 mg/kg; for Inhibition of tumor growth / Weight of tumor / weight end / weight start: human anaplastic thyroid carcinoma TA-K, 125 mg/kg once a day for 7 days; for weight end: animal weight at end; for weight start: animal weight at start.
Description: (§1) Saline solution was used as a control. The positive group CTX was treated with the compounds at an amount of 0.4 ml/20 g. The compounds were applied once a day for consecutive 7 days.

The test system of data set [4] is 05-732 human bone tumor. In words: Mouse transplant tumor, 05-732 human osteosarcoma. The note with it: for inhibitive effect on mouse transplant tumor (in words): 05-732 human bone tumor, 125 mg/kg; for Inhibtion of tumor growth / Weight of tumor / weight end / weight start: 05-732 human osteosarcoma, 125 mg/kg once a day for 7 days; for weight end: animal weight at end; for weight start: animal weight at start.
Description: as §1

In data set [5] the test system is B16 malignant melanoma. Kind of data set: Mouse transplant tumor, B16 malignant melanoma. The note with it: for Inhibition of tumor growth (%) / Weight of tumor / weight end / weight start: B16, 125 mg/kg once a day for 7 days; for weight end: body weight at end; for weight start: body weight at start; for inhibitive effect on mouse transplant tumor (in words): B16 malignant melanoma, 125 mg/kg.
Description: as §1

The test system of data set [6] is MX-1 human breast cancer cells. In words: Mouse transplant tumor, MX-1 human breast cancer.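 As to all read-outs here: mice given saline served as the control group.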 The note with it: for inhibitive effect on mouse transplant tumor (in words): 125 mg/kg; for Inhibition of tumor growth / Weight of tumor / weight end / weight start: 125 mg/kg once a day for 7 days; for weight end: animal weight at end; for weight start: animal weight at start.
Description: as §1

In data set [7] the test system is AsPc human pancreatic cancer cells. In words: Mouse transplant tumor, AsPc human pancreatic cancer.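 As to all read-outs here: Saline-treated mice served as the control group, with a CTX-treated group as positive reference.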 As to conditions: for inhibitive effect on mouse transplant tumor (in words): 125 mg/kg; for Inhibition of tumor growth / Weight of tumor / weight end / weight start: 125 mg/kg once a day for 7 days; for weight end: animal weight at end; for weight start: animal weight at start.
Description: as §1

In data set [8] the test system is MGC human stomach cancer cells. In words: Mouse transplant tumor, MGC human stomach cancer.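 As to all read-outs here: control group received saline vehicle.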 The note with it: for inhibitive effect on mouse transplant tumor (in words): 125 mg/kg; for Inhibition of tumor growth / Weight of tumor / weight end / weight start: 125 mg/kg once a day for 7 days; for weight end: animal weight at end; for weight start: animal weight at start.
Description: Saline solution was used as a control. The positive group CTX was treated with the compounds at an amount of 0.4 ml/20 g. The compounds were applied once a day for consecutive 7 days. The animals were then compensated.

Usually LD50 stands for the dose at which mortality reaches 50%. Turning to `CC(=O)OCC1OC(OP(=O)(NCCCl)NCCCl)C(Br)CC1OC(C)=O` (single isomer, unassigned) [Compound 8], the LD50 in data set [1] is reported as 2017.5 mg/kg; in data set [2] it was 301.4 mg/kg.
On to `CC(=O)OCC1OC(OP(=O)(O)N(CCCl)CCCl)CC(Br)C1OC(C)=O` (stereo not drawn) [Compound 10], for which the LD50 in data set [1] is 2223.7 mg/kg. Also, in data set [3], the “inhibitive effect on mouse transplant tumor (in words)” value (from here on “inhibitive effect”) is “good inhibitive effect; also recorded: significant effect”, the “Inhibition of tumor growth” value is on record as 71.2, the Weight of tumor worked out at 0.8 and the weight end was determined as 18.3. The compound also showed a weight start in data set [3] of 18.3. In addition, in data set [4], the “inhibitive effect” value is on record as “good inhibitive effect; also recorded: significant effect”, the “Inhibtion of tumor growth” value came to 78.4, the Weight of tumor is given as 0.6 and the weight end worked out at 18.3. The weight start in data set [4] was determined as 18.3. In data set [5], the “Inhibition of tumor growth (%)” value stood at 73.1%, the Weight of tumor turned out to be 0.7, the weight end turned out to be 18.3 and the weight start was 18.3. Also, the “inhibitive effect” value in data set [5] is “good inhibitive effect; also recorded: significant effect”. Further, in data set [6], the “inhibitive effect” value was “good inhibitive effect; also recorded: significant effect”, the “Inhibition of tumor growth” value is 73.2, the Weight of tumor stood at 0.7 and the weight end is on record as 18.3. This compound also returned a weight start in data set [6] of 18.3. In data set [7], the “inhibitive effect” value is “good inhibitive effect; also recorded: significant effect”, the “Inhibition of tumor growth” value is given as 76.9, the Weight of tumor was determined as 0.5 and the weight end was 18.3. In data set [7], this compound had a weight start of 18.3. For the same compound, the LD50 in data set [2] is on record as 315.6 mg/kg. In data set [8], the “inhibitive effect” value is “good inhibitive effect; also recorded: significant effect”, the “Inhibition of tumor growth” value turned out to be 73.2, the Weight of tumor was 0.6 and the weight end is on record as 18.3. The same compound showed a weight start in data set [8] of 18.3.
As for `CC(=O)OCC1OC(OP(=O)(O)N(CCCl)CCCl)C(Br)CC1OC(C)=O` (stereo not drawn) [Compound 12], in data set [1], the LD50 turned out to be 2101.4 mg/kg. Besides, in data set [3], the “inhibitive effect” value is listed as “significant effect”, the “Inhibition of tumor growth” value turned out to be 75.8, the Weight of tumor came out at 0.6 and the weight end worked out at 18.4. Moreover, in data set [3], the weight start was determined as 18.2. In data set [4], the “inhibitive effect” value is “significant effect”, the “Inhibtion of tumor growth” value amounted to 75.1, the Weight of tumor is given as 0.5 and the weight end worked out at 18.4. This compound registered a weight start in data set [4] of 18.2. For the same compound, in data set [5], the “Inhibition of tumor growth (%)” value turned out to be 79.5%, the Weight of tumor was 0.5, the weight end was found to be 18.4 and the weight start was found to be 18.2. Further, the “inhibitive effect” value in data set [5] is on record as “significant effect”. Besides, in data set [6], the “inhibitive effect” value was “significant effect”, the “Inhibition of tumor growth” value was 82.1, the Weight of tumor is listed as 0.4 and the weight end is reported as 18.4. Besides, the weight start in data set [6] worked out at 18.2. In addition, in data set [7], the “inhibitive effect” value was “significant effect”, the “Inhibition of tumor growth” value came to 77.5, the Weight of tumor is 0.5 and the weight end amounted to 18.4. Also, in data set [7], the weight start is 18.2. This compound also showed an LD50 in data set [2] of 306.4 mg/kg. For the same compound, in data set [8], the “inhibitive effect” value was “significant effect”, the “Inhibition of tumor growth” value was 80.5, the Weight of tumor was found to be 0.5 and the weight end was 18.4. In data set [8], this compound showed a weight start of 18.2.
